According to PubChem BioAssay AID2060605 (Molecular Pharmacology Branch, DTP, NCI, 2025):

System: 947758-054-R-J2-PDC spheroid growth, percent test/control
Assay: Anticancer human tumor 947758-054-R-J2-PDC patient-derived colon adenocarcinoma cell line growth inhibition [CLK]
Conditions: spheroids with HUVEC and MSC; for IC50: curve of first compound; for viability, T/C: stronger effect = lower value
Outline: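 Patient-derived tumor cells grown as complex spheroids with HUVEC endothelial cells and mesenchymal stem cells, treated with drug combinations. Concentrations descend in half-log steps from near clinical Cmax, or from 10 microM if Cmax unknown.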

[1] = second compound 0.0316 µM, first compound 0.0316 µM
[2] = second compound 0.0316 µM, first compound 0.1 µM
[3] = second compound 0.0316 µM, first compound 0.316 µM
[4] = second compound 0.0316 µM, first compound 1 µM
[5] = second compound 0.0316 µM, first compound 3.16 µM
[6] = second compound 0.0316 µM, first compound 10 µM
[7] = second compound 0.1 µM, first compound 0.0316 µM
[8] = second compound 0.1 µM, first compound 0.1 µM
[9] = second compound 0.1 µM, first compound 0.316 µM
[10] = second compound 0.1 µM, first compound 1 µM
[11] = second compound 0.1 µM, first compound 3.16 µM
[12] = second compound 0.1 µM, first compound 10 µM
[13] = second compound 0.316 µM, first compound 0.0316 µM
[14] = second compound 0.316 µM, first compound 0.1 µM
[15] = second compound 0.316 µM, first compound 0.316 µM
[16] = second compound 0.316 µM, first compound 1 µM
[17] = second compound 0.316 µM, first compound 3.16 µM
[18] = second compound 0.316 µM, first compound 10 µM
[19] = second compound 1 µM, first compound 0.0316 µM
[20] = second compound 1 µM, first compound 0.1 µM
[21] = second compound 1 µM, first compound 0.316 µM
[22] = second compound 1 µM, first compound 1 µM
[23] = second compound 1 µM, first compound 3.16 µM
[24] = second compound 1 µM, first compound 10 µM
[25] = second compound 3.16 µM, first compound 0.0316 µM
[26] = second compound 3.16 µM, first compound 0.1 µM
[27] = second compound 3.16 µM, first compound 0.316 µM
[28] = second compound 3.16 µM, first compound 1 µM
[29] = second compound 3.16 µM, first compound 3.16 µM
[30] = second compound 3.16 µM, first compound 10 µM
[31] = second compound 10 µM, first compound 0.0316 µM
[32] = second compound 10 µM, first compound 0.1 µM
[33] = second compound 10 µM, first compound 0.316 µM
[34] = second compound 10 µM, first compound 1 µM
[35] = second compound 10 µM, first compound 3.16 µM
[36] = second compound 10 µM, first compound 10 µM
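Note: spheroids exposed to compounds for one week before readout.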
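Throughout, for viability, T/C: 100% = DMSO vehicle control wells.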

Q: Which results are given for `NC(=O)C(=Cn1cnc(-c2cc(C(F)(F)F)cc(C(F)(F)F)c2)n1)c1cncnc1` + CNC(=O)c1ccc(Nc2nc(OC3CCCC3)c3c(-c4ccc5nc(C)oc5c4)c[nH]c3n2)c(OC)c1?
A: IC50 (second compound 0.0316 µM): < 9.49 nM; IC50 (second compound 0.1 µM): < 9.49 nM; IC50 (second compound 0.316 µM): 11.2 nM; IC50 (second compound 1 µM): < 9.49 nM; IC50 (second compound 3.16 µM): < 9.49 nM; IC50 (second compound 10 µM): < 9.49 nM; viability, T/C (second compound 0.0316 µM, first compound 0.00949 µM): 46.7%; viability, T/C (second compound 0.0316 µM, first compound 0.03 µM): 37.3%; viability, T/C (second compound 0.0316 µM, first compound 0.0949 µM): 34.4%; viability, T/C (second compound 0.0316 µM, first compound 0.3 µM): 33.6%; viability, T/C (second compound 0.0316 µM, first compound 0.949 µM): 8.62%; viability, T/C (second compound 0.0316 µM, first compound 3 µM): 2.27%; viability, T/C (second compound 0.1 µM, first compound 0.00949 µM): 45.2%; viability, T/C (second compound 0.1 µM, first compound 0.03 µM): 32.4%; viability, T/C (second compound 0.1 µM, first compound 0.0949 µM): 25.6%; viability, T/C (second compound 0.1 µM, first compound 0.3 µM): 22.8%; viability, T/C (second compound 0.1 µM, first compound 0.949 µM): 4.68%; viability, T/C (second compound 0.1 µM, first compound 3 µM): 0.78%; viability, T/C (second compound 0.316 µM, first compound 0.00949 µM): 53.1%; viability, T/C (second compound 0.316 µM, first compound 0.03 µM): 32.4%; viability, T/C (second compound 0.316 µM, first compound 0.0949 µM): 15.1%; viability, T/C (second compound 0.316 µM, first compound 0.3 µM): 11.8%; viability, T/C (second compound 0.316 µM, first compound 0.949 µM): 3.26%; viability, T/C (second compound 0.316 µM, first compound 3 µM): 0.42%; viability, T/C (second compound 1 µM, first compound 0.00949 µM): 25.9%; viability, T/C (second compound 1 µM, first compound 0.03 µM): 20.6%; viability, T/C (second compound 1 µM, first compound 0.0949 µM): 12%; viability, T/C (second compound 1 µM, first compound 0.3 µM): 3.56%; viability, T/C (second compound 1 µM, first compound 0.949 µM): 1.32%; viability, T/C (second compound 1 µM, first compound 3 µM): 0.36%; viability, T/C (second compound 3.16 µM, first compound 0.00949 µM): 20.4%; viability, T/C (second compound 3.16 µM, first compound 0.03 µM): 16.3%; viability, T/C (second compound 3.16 µM, first compound 0.0949 µM): 10.9%; viability, T/C (second compound 3.16 µM, first compound 0.3 µM): 1.11%; viability, T/C (second compound 3.16 µM, first compound 0.949 µM): 0.26%; viability, T/C (second compound 3.16 µM, first compound 3 µM): 0.36%; viability, T/C (second compound 10 µM, first compound 0.00949 µM): 15.3%; viability, T/C (second compound 10 µM, first compound 0.03 µM): 13.7%; viability, T/C (second compound 10 µM, first compound 0.0949 µM): 5.14%; viability, T/C (second compound 10 µM, first compound 0.3 µM): 0.42%; viability, T/C (second compound 10 µM, first compound 0.949 µM): 0.28%; viability, T/C (second compound 10 µM, first compound 3 µM): 0.34%

Q: Which IC50 (second compound 0.0316 µM) does the source give for `COc1ccc([C@@H](O)c2cc(-c3ncnc4cc(N5CCOCC5)ccc34)c(F)cc2Cl)nn1` + CN1CCN(c2cc(C(=O)Nc3cc4cc(-c5cnn(C)c5)ccc4cn3)ccn2)CC1 here?
A: > 10000 nM

Q: And the IC50 (second compound 0.1 µM)?
A: 4240 nM

Q: What about the IC50 (second compound 0.316 µM) of the same molecule?
A: < 31.6 nM

Q: And the IC50 (second compound 1 µM)?
A: < 31.6 nM

Q: And the IC50 (second compound 3.16 µM)?
A: < 31.6 nM

Q: What about the IC50 (second compound 10 µM) of the same molecule?
A: < 31.6 nM

Q: And the viability, T/C [1]?
A: 126%

Q: And the viability, T/C [2]?
A: 134%

Q: And the viability, T/C [3]?
A: 157%

Q: And the viability, T/C [4]?
A: 163%

Q: What about the viability, T/C [5] of the same molecule?
A: 165%

Q: And the viability, T/C [6]?
A: 64%

Q: And the viability, T/C [7]?
A: 119%

Q: And the viability, T/C [8]?
A: 137%

Q: What about the viability, T/C [9] of the same molecule?
A: 111%

Q: And the viability, T/C [10]?
A: 92.1%

Q: And the viability, T/C [11]?
A: 59.8%

Q: What about the viability, T/C [12] of the same molecule?
A: 25.2%

Q: What about the viability, T/C [13] of the same molecule?
A: 1.95%

Q: And the viability, T/C [14]?
A: 5%

Q: And the viability, T/C [15]?
A: 1.88%

Q: What about the viability, T/C [16] of the same molecule?
A: 2.42%

Q: What about the viability, T/C [17] of the same molecule?
A: 2.05%

Q: What about the viability, T/C [18] of the same molecule?
A: 1.12%

Q: What about the viability, T/C [19] of the same molecule?
A: 0.11%

Q: What about the viability, T/C [20] of the same molecule?
A: 1.62%

Q: What about the viability, T/C [21] of the same molecule?
A: 0.17%

Q: And the viability, T/C [22]?
A: 0.08%

Q: And the viability, T/C [23]?
A: 1.67%

Q: What about the viability, T/C [24] of the same molecule?
A: 0.46%

Q: What about the viability, T/C [25] of the same molecule?
A: 0.13%

Q: What about the viability, T/C [26] of the same molecule?
A: 1.34%

Q: And the viability, T/C [27]?
A: 0.63%

Q: And the viability, T/C [28]?
A: 0.14%

Q: What about the viability, T/C [29] of the same molecule?
A: 0.18%

Q: What about the viability, T/C [30] of the same molecule?
A: 0.3%

Q: And the viability, T/C [31]?
A: 0.26%

Q: What about the viability, T/C [32] of the same molecule?
A: 0.42%

Q: What about the viability, T/C [33] of the same molecule?
A: 0.26%

Q: What about the viability, T/C [34] of the same molecule?
A: 0.21%

Q: What about the viability, T/C [35] of the same molecule?
A: 0.3%

Q: What about the viability, T/C [36] of the same molecule?
A: 0.88%

Q: How did the IC50 (second compound 0.0316 µM) turn out when `Nc1ccccc1NC(=O)c1ccc(CNC(=O)OCc2cccnc2)cc1` + CNC(=O)c1ccc(Nc2nc(OC3CCCC3)c3c(-c4ccc5nc(C)oc5c4)c[nH]c3n2)c(OC)c1 was run?
A: 2230 nM

Q: What about the IC50 (second compound 0.1 µM) of the same molecule?
A: 2520 nM

Q: What about the IC50 (second compound 0.316 µM) of the same molecule?
A: 2510 nM

Q: What about the IC50 (second compound 1 µM) of the same molecule?
A: 439 nM

Q: What about the IC50 (second compound 3.16 µM) of the same molecule?
A: < 31.6 nM

Q: What about the IC50 (second compound 10 µM) of the same molecule?
A: < 31.6 nM

Q: What about the viability, T/C [1] of the same molecule?
A: 89.6%

Q: And the viability, T/C [2]?
A: 102%

Q: And the viability, T/C [3]?
A: 122%

Q: And the viability, T/C [4]?
A: 85.4%

Q: What about the viability, T/C [5] of the same molecule?
A: 34.2%

Q: What about the viability, T/C [6] of the same molecule?
A: 5.25%

Q: And the viability, T/C [7]?
A: 85.4%

Q: And the viability, T/C [8]?
A: 106%

Q: And the viability, T/C [9]?
A: 111%

Q: And the viability, T/C [10]?
A: 116%

Q: What about the viability, T/C [11] of the same molecule?
A: 36.7%

Q: And the viability, T/C [12]?
A: 4.57%

Q: What about the viability, T/C [13] of the same molecule?
A: 112%

Q: And the viability, T/C [14]?
A: 83.5%

Q: What about the viability, T/C [15] of the same molecule?
A: 91.3%

Q: What about the viability, T/C [16] of the same molecule?
A: 101%

Q: What about the viability, T/C [17] of the same molecule?
A: 38.3%

Q: And the viability, T/C [18]?
A: 3.65%

Q: And the viability, T/C [19]?
A: 64.5%

Q: And the viability, T/C [20]?
A: 62.7%

Q: What about the viability, T/C [21] of the same molecule?
A: 43%

Q: And the viability, T/C [22]?
A: 48.7%

Q: What about the viability, T/C [23] of the same molecule?
A: 26.7%

Q: What about the viability, T/C [24] of the same molecule?
A: 1.54%

Q: What about the viability, T/C [25] of the same molecule?
A: 49.2%

Q: And the viability, T/C [26]?
A: 43.8%

Q: And the viability, T/C [27]?
A: 44.5%

Q: What about the viability, T/C [28] of the same molecule?
A: 33.1%

Q: What about the viability, T/C [29] of the same molecule?
A: 16.2%

Q: What about the viability, T/C [30] of the same molecule?
A: 0.26%

Q: And the viability, T/C [31]?
A: 38.8%

Q: And the viability, T/C [32]?
A: 26.8%

Q: And the viability, T/C [33]?
A: 31.8%

Q: And the viability, T/C [34]?
A: 29.2%

Q: And the viability, T/C [35]?
A: 4.69%

Q: What about the viability, T/C [36] of the same molecule?
A: 0.52%
